The values that follow come from paper PMC5218480 (PLoS ONE, 2017).

Molecules are shown by their SMILES.

The subject of this assay is MV-4-11 cells. Nature of the assay: Gene expression microarray analysis (Affymetrix PrimeView) and GSEA. It counts as cell-based, human. Further details: RFU PODN (11730768_x_at) / Fold change /veh PODN (11730768_x_at) / RFU LINC00158 (11744669_a_at) / Fold change /veh LINC00158 (11744669_a_at) / RFU DUSP10 (11751237_a_at) / Fold change /veh DUSP10 (11751237_a_at) / RFU ID3 (11757404_x_at) / Fold change /veh ID3 (11757404_x_at) / RFU PLEKHG5 (11737974_s_at) / Fold change /veh PLEKHG5 (11737974_s_at) / RFU LRRC4B (11730491_at) / Fold change /veh LRRC4B (11730491_at) / RFU GIMAP4 (11747438_a_at) / Fold change /veh GIMAP4 (11747438_a_at) / RFU KRT8 (11758183_x_at) / Fold change /veh KRT8 (11758183_x_at) / RFU CNN1 (11734310_a_at) / Fold change /veh CNN1 (11734310_a_at) / RFU VPS37D (11726825_at) / Fold change /veh VPS37D (11726825_at) / RFU C10orf10 (11716522_x_at) / Fold change /veh C10orf10 (11716522_x_at) / RFU KIR2DL2 /// KIR2DL4 /// KIR2DL5A /// KIR2DL5B /// KIR2DS1 /// KIR2DS2 /// KIR2DS3 /// KIR2DS4 /// KIR3DL3 /// KIR3DL3 /// KIR3DS1 (11738374_at) / Fold change /veh KIR2DL2 /// KIR2DL4 /// KIR2DL5A /// KIR2DL5B /// KIR2DS1 /// KIR2DS2 /// KIR2DS3 /// KIR2DS4 /// KIR3DL3 /// KIR3DL3 /// KIR3DS1 (11738374_at) / RFU C1QL1 (11718748_at) / Fold change /veh C1QL1 (11718748_at) / RFU TMPRSS4 (11747572_a_at) / Fold change /veh TMPRSS4 (11747572_a_at) / RFU HAMP (11756126_x_at) / Fold change /veh HAMP (11756126_x_at) / RFU RNFT2 (11725882_a_at) / Fold change /veh RNFT2 (11725882_a_at) / RFU NR4A2 (11747474_a_at) / Fold change /veh NR4A2 (11747474_a_at) / RFU ABCC12 (11746883_a_at) / Fold change /veh ABCC12 (11746883_a_at) / RFU TMEM136 (11760407_x_at) / Fold change /veh TMEM136 (11760407_x_at) / RFU CLDN22 /// WWC2 (11732394_at) / Fold change /veh CLDN22 /// WWC2 (11732394_at) / RFU HLA-DPB1 (11760878_x_at) / Fold change /veh HLA-DPB1 (11760878_x_at) / RFU SPINT1 (11716480_a_at) / Fold change /veh SPINT1 (11716480_a_at) / RFU GAP43 (11754022_s_at) / Fold change /veh GAP43 (11754022_s_at) / RFU A4GNT (11735810_at) / Fold change /veh A4GNT (11735810_at) / RFU PRB3 (11715151_x_at) / Fold change /veh PRB3 (11715151_x_at) / RFU TUBB4B (11761932_at) / Fold change /veh TUBB4B (11761932_at) / RFU CAPN14 (11732068_a_at) / Fold change /veh CAPN14 (11732068_a_at) / RFU TMCC2 (11721928_a_at) / Fold change /veh TMCC2 (11721928_a_at) / RFU IRGQ (11745062_a_at) / Fold change /veh IRGQ (11745062_a_at) / RFU FAM174B (11720279_a_at) / Fold change /veh FAM174B (11720279_a_at) / RFU TMPRSS4 (11748680_a_at) / Fold change /veh TMPRSS4 (11748680_a_at) / RFU FAM212B (11763350_a_at) / Fold change /veh FAM212B (11763350_a_at) / RFU PLEKHG5 (11743358_a_at) / Fold change /veh PLEKHG5 (11743358_a_at) / RFU ZSCAN30 (11745921_a_at) / Fold change /veh ZSCAN30 (11745921_a_at) / RFU CMKLR1 (11741424_a_at) / Fold change /veh CMKLR1 (11741424_a_at) / RFU LOC101060620 /// MAPK8IP1 (11723275_at) / Fold change /veh LOC101060620 /// MAPK8IP1 (11723275_at) / RFU SPTSSB (11747773_x_at) / Fold change /veh SPTSSB (11747773_x_at) / RFU PRSS12 (11739890_at) / Fold change /veh PRSS12 (11739890_at) / RFU BIN1 (11741810_x_at) / Fold change /veh BIN1 (11741810_x_at) / RFU WNT11 (11732464_a_at) / Fold change /veh WNT11 (11732464_a_at) / RFU C10orf10 (11716521_a_at) / Fold change /veh C10orf10 (11716521_a_at) / RFU C5orf56 (11738089_at) / Fold change /veh C5orf56 (11738089_at) / RFU CYB561 (11721691_x_at) / Fold change /veh CYB561 (11721691_x_at) / RFU ANKRD19P (11752326_a_at) / Fold change /veh ANKRD19P (11752326_a_at) / RFU OR2T12 /// OR2T33 /// OR2T8 (11738714_s_at) / Fold change /veh OR2T12 /// OR2T33 /// OR2T8 (11738714_s_at) / RFU VCAN (11748164_a_at) / Fold change /veh VCAN (11748164_a_at) / RFU JSRP1 (11732532_at) / Fold change /veh JSRP1 (11732532_at) / RFU KRTAP10-11 (11738290_x_at) / Fold change /veh KRTAP10-11 (11738290_x_at) / RFU MYO3A (11730013_a_at) / Fold change /veh MYO3A (11730013_a_at) / RFU EBF3 (11725865_a_at) / Fold change /veh EBF3 (11725865_a_at) / RFU CAMK2N1 (11719241_x_at) / Fold change /veh CAMK2N1 (11719241_x_at) / RFU C5orf56 (11738088_a_at) / Fold change /veh C5orf56 (11738088_a_at) / RFU OLFML3 (11715873_a_at) / Fold change /veh OLFML3 (11715873_a_at) / RFU LOC100653217 /// NTM (11731650_a_at) / Fold change /veh LOC100653217 /// NTM (11731650_a_at) / RFU MAPK11 (11762145_a_at) / Fold change /veh MAPK11 (11762145_a_at) / RFU FIZ1 (11724087_x_at) / Fold change /veh FIZ1 (11724087_x_at) / RFU OASL (11726364_x_at) / Fold change /veh OASL (11726364_x_at) / RFU SOX15 (11748057_x_at) / Fold change /veh SOX15 (11748057_x_at) / RFU CD79A (11719716_a_at) / Fold change /veh CD79A (11719716_a_at) / RFU HIST1H1D (11736915_at) / Fold change /veh HIST1H1D (11736915_at) / RFU CASKIN2 (11723855_a_at) / Fold change /veh CASKIN2 (11723855_a_at) / RFU LOC730098 (11760151_x_at) / Fold change /veh LOC730098 (11760151_x_at) / RFU OR4N2 (11742367_at) / Fold change /veh OR4N2 (11742367_at) / RFU PRRT2 (11749266_a_at) / Fold change /veh PRRT2 (11749266_a_at) / RFU SNX32 (11753110_a_at) / Fold change /veh SNX32 (11753110_a_at) / RFU CDHR5 (11726645_a_at) / Fold change /veh CDHR5 (11726645_a_at) / RFU RCAN1 (11760418_a_at) / Fold change /veh RCAN1 (11760418_a_at) / RFU FAM167A (11723789_a_at) / Fold change /veh FAM167A (11723789_a_at) / RFU FAM26E (11764081_at) / Fold change /veh FAM26E (11764081_at) / RFU ISYNA1 (11749810_s_at) / Fold change /veh ISYNA1 (11749810_s_at) / RFU ACY1 (11761880_at) / Fold change /veh ACY1 (11761880_at) / RFU 11764098_at / Fold change /veh 11764098_at / RFU SAMD14 (11745864_x_at) / Fold change /veh SAMD14 (11745864_x_at) / RFU NPB (11741838_a_at) / Fold change /veh NPB (11741838_a_at) / RFU TMPRSS6 (11731388_a_at) / Fold change /veh TMPRSS6 (11731388_a_at) / RFU KRTAP10-2 (11738614_at) / Fold change /veh KRTAP10-2 (11738614_at) / RFU ARHGAP8 /// PRR5-ARHGAP8 (11727945_x_at) / Fold change /veh ARHGAP8 /// PRR5-ARHGAP8 (11727945_x_at) / RFU KRTAP5-7 /// NADSYN1 (11734609_at) / Fold change /veh KRTAP5-7 /// NADSYN1 (11734609_at) / RFU RASL12 (11751679_a_at) / Fold change /veh RASL12 (11751679_a_at) / RFU CDKN2B (11736163_a_at) / Fold change /veh CDKN2B (11736163_a_at) / RFU PRF1 (11729649_at) / Fold change /veh PRF1 (11729649_at) / RFU, ZNF638 /// ZNF638-IT1 / Fold change vs veh, ZNF638 /// ZNF638-IT1 / RFU, PANK3 / Fold change vs veh, PANK3 / RFU, SH3YL1 / Fold change vs veh, SH3YL1 / RFU, ZEB2 / Fold change vs veh, ZEB2 / RFU, NRIP1 / Fold change vs veh, NRIP1 / RFU, PTTG1IP / Fold change vs veh, PTTG1IP / RFU, CAPN2 / Fold change vs veh, CAPN2 / RFU, MED14 / Fold change vs veh, MED14 / RFU, SNORA58 / Fold change vs veh, SNORA58 / RFU, C1orf63 / Fold change vs veh, C1orf63 / RFU, LRRFIP1 / Fold change vs veh, LRRFIP1 / RFU, NDUFAF7 / Fold change vs veh, NDUFAF7 / RFU, SLC12A2 / Fold change vs veh, SLC12A2 / RFU, IBTK / Fold change vs veh, IBTK / RFU, ESF1 / Fold change vs veh, ESF1 / Fold change vs veh, TMEM50B / RFU, TAOK1 / Fold change vs veh, TAOK1 / RFU, ACBD3 / Fold change vs veh, ACBD3 / RFU, TMA16 / Fold change vs veh, TMA16 / RFU, RWDD3 / Fold change vs veh, RWDD3 / RFU, BCAT1 / Fold change vs veh, BCAT1 / RFU, EDEM3 / Fold change vs veh, EDEM3 / RFU, TMEM33 / Fold change vs veh, TMEM33 / RFU, WDR75 / Fold change vs veh, WDR75 / RFU, AHCTF1 / Fold change vs veh, AHCTF1 / RFU, TFRC / Fold change vs veh, TFRC / RFU, ZDHHC17 / Fold change vs veh, ZDHHC17 / RFU, NOM1 / Fold change vs veh, NOM1 / RFU, ARL8B / Fold change vs veh, ARL8B / RFU, ZBTB11 / Fold change vs veh, ZBTB11 / RFU, TAMM41 / Fold change vs veh, TAMM41 / RFU, KIAA1704 /// LOC100996395 / Fold change vs veh, KIAA1704 /// LOC100996395 / RFU, ING1 / Fold change vs veh, ING1 / RFU, TRMT61B / Fold change vs veh, TRMT61B / RFU, FUBP3 / Fold change vs veh, FUBP3 / RFU, TP53 / Fold change vs veh, TP53 / RFU, TNKS2 / Fold change vs veh, TNKS2 / RFU, ZFP14 / Fold change vs veh, ZFP14 / RFU, ACTR2 / Fold change vs veh, ACTR2 / RFU, PPP3R1 / Fold change vs veh, PPP3R1 / RFU, PIK3R1 / Fold change vs veh, PIK3R1 / RFU, HNRNPA1 / Fold change vs veh, HNRNPA1 / RFU, RNF170 / Fold change vs veh, RNF170 / RFU, ZNF28 / Fold change vs veh, ZNF28 / RFU, RNGTT / Fold change vs veh, RNGTT / RFU, OGT / Fold change vs veh, OGT / RFU, BRD1 / Fold change vs veh, BRD1 / RFU, MARS / Fold change vs veh, MARS / RFU, ZNF655 / Fold change vs veh, ZNF655 / RFU, FAHD1 / Fold change vs veh, FAHD1 / RFU, BDP1 / Fold change vs veh, BDP1 / RFU, LRRCC1 / Fold change vs veh, LRRCC1 / RFU, ARID1A / Fold change vs veh, ARID1A / RFU, ZNF146 / Fold change vs veh, ZNF146 / RFU, ZNF330 / Fold change vs veh, ZNF330 / RFU, GPN3 / Fold change vs veh, GPN3 / RFU, C9orf123 / Fold change vs veh, C9orf123 / RFU, N4BP2L2 / Fold change vs veh, N4BP2L2 / RFU, ARFIP1 / Fold change vs veh, ARFIP1 / RFU, FAM179B / Fold change vs veh, FAM179B / RFU, BCL10 / Fold change vs veh, BCL10 / RFU, UHRF1BP1L / Fold change vs veh, UHRF1BP1L / RFU, BET1 / Fold change vs veh, BET1 / RFU, CNOT2 / Fold change vs veh, CNOT2 / RFU, ZNF268 / Fold change vs veh, ZNF268 / Fold change vs veh, ZNF507 / RFU, DGCR2 / Fold change vs veh, DGCR2 / RFU, WDSUB1 / Fold change vs veh, WDSUB1 / Fold change vs veh, HSP90B1 /// MIR3652 / RFU, ADSS / Fold change vs veh, ADSS / RFU, GK / Fold change vs veh, GK / RFU, ZNF148 / Fold change vs veh, ZNF148 / RFU, TAF9 / Fold change vs veh, TAF9 / RFU, SLC1A5 / Fold change vs veh, SLC1A5 / RFU, SLMO2 / Fold change vs veh, SLMO2 / RFU, ABCC4 / Fold change vs veh, ABCC4 / RFU, LOC101060439 /// RAP1B / Fold change vs veh, LOC101060439 /// RAP1B / RFU, RFX7 / Fold change vs veh, RFX7 / RFU, GTPBP10 / Fold change vs veh, GTPBP10 / RFU, CNEP1R1 / Fold change vs veh, CNEP1R1 / RFU, BIVM-ERCC5 /// ERCC5 / Fold change vs veh, BIVM-ERCC5 /// ERCC5 / RFU, ILF3 / Fold change vs veh, ILF3 / RFU 11762660_at / Fold change /veh 11762660_at / RFU VCAN (11757783_s_at) / Fold change /veh VCAN (11757783_s_at) / RFU DDX43 (11728927_at) / Fold change /veh DDX43 (11728927_at) / RFU KRT8 (11758188_x_at) / Fold change /veh KRT8 (11758188_x_at) / RFU NKD1 (11759106_at) / Fold change /veh NKD1 (11759106_at) / RFU SRD5A1 (11742802_a_at) / Fold change /veh SRD5A1 (11742802_a_at) / RFU TPSAB1 /// TPSB2 (11721975_s_at) / Fold change /veh TPSAB1 /// TPSB2 (11721975_s_at) / RFU GSTM3 (11746129_a_at) / Fold change /veh GSTM3 (11746129_a_at) / RFU IL23R (11737362_x_at) / Fold change /veh IL23R (11737362_x_at) / RFU TMEM51 (11727254_a_at) / Fold change /veh TMEM51 (11727254_a_at) / RFU PIWIL2 (11732686_x_at) / Fold change /veh PIWIL2 (11732686_x_at) / RFU ORM1 (11744905_x_at) / Fold change /veh ORM1 (11744905_x_at) / RFU CCDC152 (11743942_at) / Fold change /veh CCDC152 (11743942_at) / RFU ECM1 (11717891_a_at) / Fold change /veh ECM1 (11717891_a_at) / RFU IL23R (11748794_a_at) / Fold change /veh IL23R (11748794_a_at) / RFU TNFAIP8L3 (11732012_x_at) / Fold change /veh TNFAIP8L3 (11732012_x_at) / RFU MBOAT4 (11741988_at) / Fold change /veh MBOAT4 (11741988_at) / RFU 11764193_at / Fold change /veh 11764193_at / RFU TMEM53 (11763286_at) / Fold change /veh TMEM53 (11763286_at) / RFU MAGEB2 (11727129_at) / Fold change /veh MAGEB2 (11727129_at) / RFU TMEM200A (11744735_a_at) / Fold change /veh TMEM200A (11744735_a_at) / RFU CCDC152 (11751479_a_at) / Fold change /veh CCDC152 (11751479_a_at) / RFU FAM211A (11726209_a_at) / Fold change /veh FAM211A (11726209_a_at) / RFU RGS16 (11746705_a_at) / Fold change /veh RGS16 (11746705_a_at) / RFU VCAN (11755009_s_at) / Fold change /veh VCAN (11755009_s_at) / RFU RHOB (11743442_s_at) / Fold change /veh RHOB (11743442_s_at) / RFU RGS16 (11720943_a_at) / Fold change /veh RGS16 (11720943_a_at) / RFU RGS16 (11720944_at) / Fold change /veh RGS16 (11720944_at) / RFU, VPS4B / Fold change vs veh, VPS4B / RFU, CREB1 / Fold change vs veh, CREB1 / RFU, DNAJC13 / Fold change vs veh, DNAJC13 / RFU, GNAQ / Fold change vs veh, GNAQ / RFU, CDK5R1 / Fold change vs veh, CDK5R1 / RFU, ZRANB3 / Fold change vs veh, ZRANB3 / RFU, CUL4A / Fold change vs veh, CUL4A / RFU, CCNY / Fold change vs veh, CCNY / RFU, UFL1 / Fold change vs veh, UFL1 / RFU, COG3 / Fold change vs veh, COG3 / RFU, DIAPH2 / Fold change vs veh, DIAPH2 / RFU, SKA2 / Fold change vs veh, SKA2 / RFU, AFF3 / Fold change vs veh, AFF3 / RFU, LMF1 / Fold change vs veh, LMF1 / RFU, IPO11 / Fold change vs veh, IPO11 / RFU, DFFB / Fold change vs veh, DFFB / RFU, FOXP1 / Fold change vs veh, FOXP1 / RFU, CARD8 / Fold change vs veh, CARD8 / RFU, STRN3 / Fold change vs veh, STRN3 / RFU, ADK / Fold change vs veh, ADK / RFU, RASSF2 / Fold change vs veh, RASSF2 / RFU, WIPF1 / Fold change vs veh, WIPF1 / RFU, LARP1B / Fold change vs veh, LARP1B / RFU, RASA1 / Fold change vs veh, RASA1 / RFU, RB1 / Fold change vs veh, RB1 / RFU, PPFIA1 / Fold change vs veh, PPFIA1 / RFU, MAT2A / Fold change vs veh, MAT2A / RFU, CCT5 / Fold change vs veh, CCT5 / RFU, WDR92 / Fold change vs veh, WDR92 / RFU, CUX1 / Fold change vs veh, CUX1 / RFU, TTC7A / Fold change vs veh, TTC7A / RFU, TMEM135 / Fold change vs veh, TMEM135 / RFU, DEPTOR / Fold change vs veh, DEPTOR / RFU, CPM / Fold change vs veh, CPM / RFU, DNAJB6 / Fold change vs veh, DNAJB6 / RFU, CACNA2D3 / Fold change vs veh, CACNA2D3 / RFU, DTX4 / Fold change vs veh, DTX4 / RFU, TFCP2 / Fold change vs veh, TFCP2 / RFU, GMCL1 /// GMCL1P1 / Fold change vs veh, GMCL1 /// GMCL1P1 / RFU, AEBP2 / Fold change vs veh, AEBP2 / RFU, SNHG1 /// SNORD22 /// SNORD25 /// SNORD26 /// SNORD27 /// SNORD28 /// SNORD29 /// SNORD31 / Fold change vs veh, SNHG1 /// SNORD22 /// SNORD25 /// SNORD26 /// SNORD27 /// SNORD28 /// SNORD29 /// SNORD31 / Fold change (Aza/veh), C12orf56 (ProbeSet 11735607_a_at) / Fold change (ACY-1035/veh), C12orf56 (ProbeSet 11735607_a_at) / Fold change (Aza/veh), FGFR1OP (ProbeSet 11751329_s_at) / Fold change (ACY-1035/veh), FGFR1OP (ProbeSet 11751329_s_at) / Fold change (Aza/veh), VPS36 (ProbeSet 11739960_a_at) / Fold change (ACY-1035/veh), VPS36 (ProbeSet 11739960_a_at) / RFU SYPL1 (11715823_x_at) / Fold change /veh SYPL1 (11715823_x_at) / RFU IGFBP7 (11715501_s_at) / Fold change /veh IGFBP7 (11715501_s_at) / RFU REEP3 (11722064_at) / Fold change /veh REEP3 (11722064_at) / RFU IGLL1 (11728026_x_at) / Fold change /veh IGLL1 (11728026_x_at): dose or concentration left out as unconfirmed. The settings on record: ProbeSet 11752001_a_at; LIST D.

For the compound `Nc1ncn([C@@H]2O[C@H](CO)[C@@H](O)[C@H]2O)c(=O)n1` [azacitidine], the “RFU, CUL4A” value is 406.78 RFU.
